In patent US11053204B2, “Pyrimidinyloxy benzene derivatives as herbicides” (FMC Corporation, priority 2015, dated 2021):

Columns and labels:
Assay type in all cases: in vivo
[1] = tested on: pigweed (Amaranthus retroflexus); assay: Test A postemergence, visual injury rating
Procedure, shortened: (§1)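 Pre- and postemergence greenhouse screen. Soil: loam + sand. Spray carrier: solvent mixture, non-phytotoxic, with surfactant. Post timing at 1–2 leaves, height 2–10 cm. Readout: visual injury on a 0–100 scale roughly 10 days after application, untreated plants as reference.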

[2] = tested on: ragweed (common ragweed, Ambrosia elatior); assay: Test A postemergence, visual injury rating
Procedure, shortened: as §1

[3] = tested on: galium (catchweed bedstraw, Galium aparine); assay: Test A postemergence, visual injury rating
Procedure, shortened: as §1

[4] = tested on: giant foxtail (Setaria faberii); assay: Test A postemergence, visual injury rating
Procedure, shortened: as §1

[5] = tested on: Italian ryegrass (Lolium multiflorum); assay: Test A postemergence, visual injury rating
Procedure, shortened: as §1

corn (Zea mays) = assay: Test A postemergence, visual injury rating
Procedure, shortened: as §1

[6] = tested on: blackgrass (Alopecurus myosuroides); assay: Test A postemergence, visual injury rating
Procedure, shortened: as §1

kochia (Kochia scoparia) [7] = assay: Test A postemergence, visual injury rating
Procedure, shortened: as §1

[8] = tested on: barnyardgrass (Echinochloa crus-galli); assay: Test A postemergence, visual injury rating; conditions: 0 is no effect, 100 is complete control; for Barnyardgrass plant response rating: 0 to 100 scale, approximately 10 days
Procedure, shortened: as §1

[9] = tested on: wheat (Triticum aestivum); assay: Test A postemergence, visual injury rating
Procedure, shortened: as §1

[10] = tested on: sedge, umbrella (small-flower umbrella sedge, Cyperus difformis); assay: Test B flooded paddy test, plant response rating; conditions: 250 g ai/ha; Flood; scale of 0 to 100 where 0 is no effect and 100 is complete control; 13 to 15 days
Procedure, shortened: (§2)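 Compound was added to standing water 3 cm above soil, flood maintained, and plants held in a greenhouse before visual scoring against controls at 13 to 15 days.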

[11] = tested on: ducksalad (Heteranthera limosa); assay: Test B flooded paddy test, plant response rating; conditions: 250 g ai/ha; Flood; scale of 0 to 100 where 0 is no effect and 100 is complete control; 13 to 15 days
Procedure, shortened: as §2

[12] = tested on: barnyardgrass (Echinochloa crus-galli); assay: Test B flooded paddy test, plant response rating; conditions: 250 g ai/ha; Flood; scale of 0 to 100 where 0 is no effect and 100 is complete control; 13 to 15 days
Procedure, shortened: as §2

rice (Oryza sativa) = assay: Test B flooded paddy test, plant response rating; conditions: 250 g ai/ha; Flood; scale of 0 to 100 where 0 is no effect and 100 is complete control; 13 to 15 days
Procedure, shortened: as §2

[13] = tested on: pigweed (Amaranthus retroflexus); assay: Test A preemergence, visual injury rating
Procedure, shortened: as §1

[14] = tested on: ragweed (common ragweed, Ambrosia elatior); assay: Test A preemergence, visual injury rating
Procedure, shortened: as §1

[15] = tested on: giant foxtail (Setaria faberii); assay: Test A preemergence, visual injury rating
Procedure, shortened: as §1

[16] = tested on: Italian ryegrass (Lolium multiflorum); assay: Test A preemergence, visual injury rating
Procedure, shortened: as §1

kochia (Kochia scoparia) [17] = assay: Test A preemergence, visual injury rating
Procedure, shortened: as §1

[18] = tested on: barnyardgrass (Echinochloa crus-galli); assay: Test A preemergence, visual injury rating
Procedure, shortened: as §1

[19] = 125 g ai/ha, 0 to 100 scale, 0 is no effect, 100 is complete control, approximately 10 days
[20] = 500 g ai/ha, 0 is no effect, 100 is complete control
[21] = 125 g ai/ha, 0 to 100 scale (0 no effect, 100 complete control)
[22] = 500 g ai/ha, 0 to 100 scale (0 no effect, 100 complete control)
[23] = 31 g ai/ha, 0 to 100 scale (0 no effect, 100 complete control)
[24] = 31 g ai/ha, 0 to 100 scale, 0 no effect, 100 complete control
[25] = 31 g ai/ha, 0 to 100 scale, 0 is no effect, 100 is complete control, approximately 10 days
[26] = 125 g ai/ha, 0 is no effect, 100 is complete control

O=Cc1c(Cl)cccc1Oc1ncc(Cl)cn1 [Compound 139]
Pigweed plant response rating [1, 19]: 0
Pigweed plant response rating (0 to 100 scale) [1, 20]: 0
Ragweed plant response rating [2, 19]: 0
Ragweed plant response rating (0 to 100 scale) [2, 20]: 0
Galium plant response rating [3, 19]: 0
Galium plant response rating (0 to 100 scale) [3, 20]: 0
Foxtail, Giant plant response rating [4, 19]: 0
Foxtail, Giant plant response rating (0 to 100 scale) [4, 20]: 0
Ryegrass, Italian plant response rating [5, 19]: 0
Ryegrass, Italian plant response rating (0 to 100 scale) [5, 20]: 20
Corn plant response rating (corn (Zea mays); [19]): 0
Corn plant response rating (0 to 100 scale) (corn (Zea mays); [20]): 0
Blackgrass plant response rating [6, 19]: 0
Blackgrass plant response rating (0 to 100 scale) [6, 20]: 0
Kochia plant response rating (kochia (Kochia scoparia) [7]; [19]): 0
Kochia plant response rating (0 to 100 scale) (kochia (Kochia scoparia) [7]; [20]): 0
Barnyardgrass plant response rating ([8]; 125 g ai/ha): 0
Barnyardgrass plant response rating (0 to 100 scale) ([8]; 500 g ai/ha): 0
Wheat plant response rating [9, 19]: 0
Wheat plant response rating (0 to 100 scale) [9, 20]: 0
Plant response rating, Sedge, Umbrella [10]: 0
Plant response rating, Ducksalad [11]: 30
Plant response rating, Barnyardgrass [12]: 0
Plant response rating, Rice (rice (Oryza sativa)): 0
Plant response rating, Pigweed [13, 21]: 0
Pigweed plant response rating [13, 22]: 0
Plant response rating, Ragweed [14, 21]: 50
Ragweed plant response rating [14, 22]: 0
Plant response rating, Foxtail, Giant [15, 21]: 0
Foxtail, Giant plant response rating [15, 22]: 0
Plant response rating, Ryegrass, Italian [16, 21]: 0
Ryegrass, Italian plant response rating [16, 22]: 0
Plant response rating, Kochia (kochia (Kochia scoparia) [17]; [21]): 0
Kochia plant response rating (kochia (Kochia scoparia) [17]; [22]): 0
Plant response rating, Barnyardgrass [18, 21]: 0
Barnyardgrass plant response rating [18, 22]: 0

N#Cc1cccc(Oc2ncc(Cl)cn2)c1C(=O)CCC(F)(F)F [Compound 142]
Pigweed plant response rating [1, 23]: 0
Pigweed plant response rating [1, 19]: 20
Ragweed plant response rating [2, 23]: 0
Ragweed plant response rating [2, 19]: 20
Galium plant response rating [3, 23]: 0
Galium plant response rating [3, 19]: 20
Foxtail, Giant plant response rating [4, 23]: 0
Foxtail, Giant plant response rating [4, 19]: 0
Ryegrass, Italian plant response rating [5, 23]: 0
Ryegrass, Italian plant response rating [5, 19]: 0
Corn plant response rating (corn (Zea mays); [23]): 0
Corn plant response rating (corn (Zea mays); [19]): 10
Blackgrass plant response rating [6, 23]: 0
Blackgrass plant response rating [6, 19]: 0
Kochia plant response rating (kochia (Kochia scoparia) [7]; [23]): 0
Kochia plant response rating (kochia (Kochia scoparia) [7]; [19]): 10
Barnyardgrass plant response rating ([8]; 31 g ai/ha): 0
Barnyardgrass plant response rating ([8]; 125 g ai/ha): 0
Wheat plant response rating [9, 23]: 0
Wheat plant response rating [9, 19]: 0
Plant response rating, Sedge, Umbrella [10]: 0
Plant response rating, Ducksalad [11]: 0
Plant response rating, Barnyardgrass [12]: 0
Plant response rating, Rice (rice (Oryza sativa)): 0
Plant response rating, Pigweed [13, 24]: 0
Plant response rating, Pigweed [13, 21]: 0
Plant response rating, Ragweed [14, 24]: 0
Plant response rating, Ragweed [14, 21]: 0
Plant response rating, Foxtail, Giant [15, 24]: 0
Plant response rating, Foxtail, Giant [15, 21]: 0
Plant response rating, Ryegrass, Italian [16, 24]: 0
Plant response rating, Ryegrass, Italian [16, 21]: 0
Plant response rating, Kochia (kochia (Kochia scoparia) [17]; [24]): 0
Plant response rating, Kochia (kochia (Kochia scoparia) [17]; [21]): 0
Plant response rating, Barnyardgrass [18, 24]: 0
Plant response rating, Barnyardgrass [18, 21]: 0

CC(C)Oc1cccc(Oc2ncc(Cl)cn2)c1C(=O)OCCC(F)(F)F [Compound 115]
Pigweed plant response rating [1, 25]: 10
Pigweed plant response rating [1, 19]: 40
Ragweed plant response rating [2, 25]: 0
Ragweed plant response rating [2, 19]: 0
Galium plant response rating [3, 25]: 20
Galium plant response rating [3, 19]: 20
Foxtail, Giant plant response rating [4, 25]: 0
Foxtail, Giant plant response rating [4, 19]: 0
Ryegrass, Italian plant response rating [5, 25]: 0
Ryegrass, Italian plant response rating [5, 19]: 0
Corn plant response rating (corn (Zea mays); [25]): 0
Corn plant response rating (corn (Zea mays); [19]): 10
Blackgrass plant response rating [6, 25]: 0
Blackgrass plant response rating [6, 19]: 20
Kochia plant response rating (kochia (Kochia scoparia) [7]; [25]): 0
Kochia plant response rating (kochia (Kochia scoparia) [7]; [19]): 0
Barnyardgrass plant response rating ([8]; 31 g ai/ha): 0
Barnyardgrass plant response rating ([8]; 125 g ai/ha): 0
Wheat plant response rating [9, 25]: 0
Wheat plant response rating [9, 19]: 0
Plant response rating, Sedge, Umbrella [10]: 0
Plant response rating, Ducksalad [11]: 0
Plant response rating, Barnyardgrass [12]: 0
Plant response rating, Rice (rice (Oryza sativa)): 0
Plant response rating, Pigweed [13, 24]: 0
Plant response rating, Pigweed [13, 21]: 0
Plant response rating, Ragweed [14, 24]: 20
Plant response rating, Ragweed [14, 21]: 0
Plant response rating, Foxtail, Giant [15, 24]: 0
Plant response rating, Foxtail, Giant [15, 21]: 0
Plant response rating, Ryegrass, Italian [16, 24]: 0
Plant response rating, Ryegrass, Italian [16, 21]: 0
Plant response rating, Kochia (kochia (Kochia scoparia) [17]; [24]): 70
Plant response rating, Kochia (kochia (Kochia scoparia) [17]; [21]): 0
Plant response rating, Barnyardgrass [18, 24]: 0
Plant response rating, Barnyardgrass [18, 21]: 0

CN(CCCC(F)(F)F)c1c(C#N)cccc1Oc1ncc(Cl)cn1 [Compound 126]
Pigweed plant response rating [1, 25]: 0
Pigweed plant response rating [1, 19]: 10
Ragweed plant response rating [2, 25]: 0
Ragweed plant response rating [2, 19]: 0
Galium plant response rating [3, 25]: 0
Galium plant response rating [3, 19]: 0
Foxtail, Giant plant response rating [4, 25]: 0
Foxtail, Giant plant response rating [4, 19]: 0
Ryegrass, Italian plant response rating [5, 25]: 0
Ryegrass, Italian plant response rating [5, 19]: 0
Corn plant response rating (corn (Zea mays); [25]): 0
Corn plant response rating (corn (Zea mays); [19]): 0
Blackgrass plant response rating [6, 25]: 0
Blackgrass plant response rating [6, 19]: 0
Kochia plant response rating (kochia (Kochia scoparia) [7]; [25]): 0
Kochia plant response rating (kochia (Kochia scoparia) [7]; [19]): 0
Barnyardgrass plant response rating ([8]; 31 g ai/ha): 0
Barnyardgrass plant response rating ([8]; 125 g ai/ha): 0
Wheat plant response rating [9, 25]: 0
Wheat plant response rating [9, 19]: 0
Plant response rating, Sedge, Umbrella [10]: 0
Plant response rating, Ducksalad [11]: 0
Plant response rating, Barnyardgrass [12]: 90
Plant response rating, Rice (rice (Oryza sativa)): 0
Plant response rating, Pigweed [13, 24]: 0
Plant response rating, Pigweed [13, 21]: 0
Plant response rating, Ragweed [14, 24]: 0
Plant response rating, Ragweed [14, 21]: 0
Plant response rating, Foxtail, Giant [15, 24]: 0
Plant response rating, Foxtail, Giant [15, 21]: 0
Plant response rating, Ryegrass, Italian [16, 24]: 0
Plant response rating, Ryegrass, Italian [16, 21]: 0
Plant response rating, Kochia (kochia (Kochia scoparia) [17]; [24]): 0
Plant response rating, Kochia (kochia (Kochia scoparia) [17]; [21]): 0
Plant response rating, Barnyardgrass [18, 24]: 0
Plant response rating, Barnyardgrass [18, 21]: 0

O=C(OCC(F)(F)F)c1c(F)cccc1Oc1ncc(Br)cn1 [Compound 47]
Pigweed plant response rating (0 to 100 scale) [1, 26]: 0
Pigweed plant response rating (0 to 100 scale) [1, 20]: 0
Ragweed plant response rating (0 to 100 scale) [2, 26]: 0
Ragweed plant response rating (0 to 100 scale) [2, 20]: 0
Galium plant response rating (0 to 100 scale) [3, 26]: 0
Galium plant response rating (0 to 100 scale) [3, 20]: 0
Foxtail, Giant plant response rating (0 to 100 scale) [4, 26]: 0
Foxtail, Giant plant response rating (0 to 100 scale) [4, 20]: 0
Ryegrass, Italian plant response rating (0 to 100 scale) [5, 26]: 0
Ryegrass, Italian plant response rating (0 to 100 scale) [5, 20]: 0
Corn plant response rating (0 to 100 scale) (corn (Zea mays); [26]): 0
Corn plant response rating (0 to 100 scale) (corn (Zea mays); [20]): 0
Blackgrass plant response rating (0 to 100 scale) [6, 26]: 0
Blackgrass plant response rating (0 to 100 scale) [6, 20]: 0
Kochia plant response rating (0 to 100 scale) (kochia (Kochia scoparia) [7]; [26]): 0
Kochia plant response rating (0 to 100 scale) (kochia (Kochia scoparia) [7]; [20]): 0
Barnyardgrass plant response rating (0 to 100 scale) ([8]; 125 g ai/ha): 0
Barnyardgrass plant response rating (0 to 100 scale) ([8]; 500 g ai/ha): 0
Wheat plant response rating (0 to 100 scale) [9, 26]: 0
Wheat plant response rating (0 to 100 scale) [9, 20]: 0
Plant response rating, Sedge, Umbrella [10]: 0
Plant response rating, Ducksalad [11]: 0
Plant response rating, Barnyardgrass [12]: 0
Plant response rating, Rice (rice (Oryza sativa)): 0
Pigweed plant response rating [13, 21]: 0
Pigweed plant response rating [13, 22]: 0
Ragweed plant response rating [14, 21]: 0
Ragweed plant response rating [14, 22]: 0
Foxtail, Giant plant response rating [15, 21]: 0
Foxtail, Giant plant response rating [15, 22]: 0
Ryegrass, Italian plant response rating [16, 21]: 0
Ryegrass, Italian plant response rating [16, 22]: 0
Kochia plant response rating (kochia (Kochia scoparia) [17]; [21]): 0
Kochia plant response rating (kochia (Kochia scoparia) [17]; [22]): 0
Barnyardgrass plant response rating [18, 21]: 0
Barnyardgrass plant response rating [18, 22]: 0
